Literature values in patent US8481600B2, “Formulation of aspirin that is stable and showing minimal hydrolysis for parenteral administration for the treatment of cardiovascular and other disease states” (Academic Pharmaceuticals, Inc., priority 2007, dated 2013).

What was measured:
[1] = cited from earlier work
[2] = cited from earlier work; remark: listed apart in the source
[3] = cited from earlier work; remark: listed apart in the source

In the case of CC(=O)Oc1ccccc1C(=O)O [Lysine acetylsalicylate], the “shortest half life after IV administration” value ([1]; IV) is given as 7.5 min, the “metabolism and hydrolysis to salicylic acid” value ([1]; in vivo) is given as “rapid” and the “treatment of acute migraine headaches” value ([2]; human, in vivo) is given as “effective”. The “incidence of sensitivity that can lead to anaphylactic shock” value ([2]; patients) was “up to 5%” and the water solubility [3] was “readily water soluble”.
